How the values were obtained:
[1] = tested on: human lung carcinoma A549; assay: Antiproliferative activity, SRB assay, 72 h; format: cell-based; conditions: for IC50: Homo sapiens, A549, 72 h, SRB, read-out: IC50; for SI: IC50 MCF-10A / IC50 A549
Protocol: (§1) The tested compounds were dissolved in DMSO (dimethyl sulfoxide) to a concentration of 10 mg/mL and then were diluted in the culture medium to reach the final concentrations. The cells were plated in 384-well plates at a density of 1 × 10^3 or 2 × 10^3 (MCF-10A) cells per well (Greiner Bio One, Kremsmünster, Austria) and in 96-well plates (MV4-11 cell; Sarstedt, Nümbrecht, Germany) at a density of 5 × 10^3 cells per well. After 24 h of incubation, the tested compounds were added at concentrations in the range of 100–0.03 µg/mL and, after the next 72 h of exposure to tested agents, the cytotoxic effect of all agents was examined using the MTT (MV4-11) or SRB assay, described previously. The values of IC50 (inhibitory concentration 50%) were calculated separately for each experiment (repeated 3–5 times) using the Prolab-3 system which is based on Cheburator 0.4 software. Doxorubicin was applied as a reference drug. The IC50 values in µg/mL were calculated to µM.
(§2) The cytotoxicity assay was performed after the cultured cells were exposed to the tested agents for 72 h using the authomatic Washer dyspenser EL406, BioTek. At the first step, the washer dispenser collected 40 µL of cultured medium from each wells, and then the cells were fixed by gently layering 20 µL per well of cold 25% trichloroacetic acid to each well. The incubation time was 40 min and then the plates were washed with tap water. The cells were stained with 20 µL per well of 0.1% sulforhodamine B (SRB, Merck, Darmstadt, Germany) for 30 min. Unbound sulforhodamine B was removed by washing it with 1% acetic acid. The protein-bound dye was extracted in 30 min using 70 µL per well of 10 mM unbuffered Tris base (Merck, Darmstadt, Germany). The absorbance (at 540 nm) was measured on a Synergy H4 photometer (BioTek Instruments, Winooski, VT, USA). The absorbance of the wells without the cells was the background.

[2] = tested on: human colon cancer HCT116 cells; assay: Antiproliferative activity, SRB assay, 72 h; format: cell-based; conditions: for IC50: Homo sapiens, HCT-116, HCT116, 72 h, SRB, read-out: IC50; for SI: IC50 MCF-10A / IC50 HCT116
Protocol: as §1, §2

[3] = tested on: human pancreas cancer MiaPaca-2 cells; assay: Antiproliferative activity, SRB assay, 72 h; format: cell-based; conditions: for IC50: Homo sapiens, MIA PaCa-2, MiaPaca-1 (so in the source), 72 h, SRB, read-out: IC50; for SI: IC50 MCF-10A / IC50 MiaPaca-1 (so in the source)
Protocol: as §1, §2

[4] = tested on: human melanoma Hs294T cells; assay: Antiproliferative activity, SRB assay, 72 h; format: cell-based; conditions: for IC50: Homo sapiens, Hs 294T, Hs249T (so in the source), 72 h, SRB, read-out: IC50; for SI: IC50 MCF-10A / IC50 Hs249T (so in the source)
Protocol: as §1, §2

[5] = tested on: human breast cancer MCF-7; assay: Antiproliferative activity, SRB assay, 72 h; format: cell-based; conditions: for IC50: Homo sapiens, MCF7, MCF-7, 72 h, SRB, read-out: IC50; for SI: IC50 MCF-10A / IC50 MCF-7
Protocol: as §1, §2

[6] = tested on: human prostate adenocarcinoma PC-3; assay: Antiproliferative activity, SRB assay, 72 h; format: cell-based; conditions: for IC50: Homo sapiens, PC-3, 72 h, SRB, read-out: IC50; for SI: IC50 MCF-10A / IC50 PC-3
Protocol: as §1, §2

[7] = tested on: tested cell lines (MV4-11, A549, MCF-7, PC-3, HCT116, MiaPaca-2, Hs294T); assay: Antiproliferative activity, range over the tested cell lines; format: cell-based; conditions: Homo sapiens; range across cell lines, 72 h
Protocol: as §1, with “The values of IC50 (inhibitory concentration 50%) were calculated separately for each experiment (repeated 3–5 times) using the Prolab-3 system which is based on Cheburator 0.4 software. Doxorubicin was applied as a reference drug.” left out
This assay was used against MV4-11 leukemia cells and was performed after 72 h of exposure of the tested agents to the cells. […] After the next 24 h, the absorbance of the samples was measured at a 570 nm wavelength on a Synergy H4 photometer (BioTek Instruments, Winooski, VT, USA). The absorbance of wells without the cells was the background.
The cytotoxicity assay was performed after the cultured cells were exposed to the tested agents for 72 h using the authomatic Washer dyspenser EL406, BioTek. […] The absorbance (at 540 nm) was measured on a Synergy H4 photometer (BioTek Instruments, Winooski, VT, USA). […]

[8] = tested on: human biphenotypic B myelomonocytic leukemia MV4-11; assay: Antiproliferative activity, MTT assay, 72 h; format: cell-based; conditions: for IC50: Homo sapiens, MV4-11, 72 h, MTT, read-out: IC50; for SI: IC50 MCF-10A / IC50 MV4-11
Protocol: as §1
This assay was used against MV4-11 leukemia cells and was performed after 72 h of exposure of the tested agents to the cells. For each well, 20 µL of the MTT [3-(4,5-dimethylthiazol-2-yl)-2,5-diphenyl tetrazolium bromide] solution (5 mg/mL, Merck, Darmstadt, Germany) was added. After the incubation time (4 h at 37 °C), 80 µL of the lysing buffer was added to each well (mixture of 225 mL of DMF (dimethylformamide) Avantor, Poland; 67.5 g of SDS, Merck, Darmstadt, Germany; and 275 mL of distilled water). After the next 24 h, the absorbance of the samples was measured at a 570 nm wavelength on a Synergy H4 photometer (BioTek Instruments, Winooski, VT, USA). The absorbance of wells without the cells was the background.

[9] = tested on: human normal epithelial cells from the mammary gland (MCF-10A); assay: Cytotoxicity on non-tumorigenic cells, SRB assay, 72 h; format: cell-based; conditions: Homo sapiens, MCF-10A normal cells, SRB, read-out: IC50
Protocol: as §1, §2

MV4-11 cells [10] = assay: Cell cycle analysis by flow cytometry (propidium iodide); format: cell-based, human; conditions: for number of cells in the G2/M phase / number of cells in the G2/M and S phases: about 1.5 × IC50, statistically significant; for number of death cells / number of cells in the G2/M and S phases: MV4-11, 72 h
Protocol: After incubation, the cells were collected and counted with a hemocytometer, and the 5×10^5 cells were washed twice in cold PBS (phosphate-buffered saline) and fixed for 24 h in 70% ethanol at −20 °C. Then, the cells were washed twice in PBS and incubated with 0.5 mL of RNAse (8 μg/mL, Thermo Fisher, Waltham, MA, USA) at 37 °C for 1 h. The cells were stained for 30 min with propidium iodide (final concentration: 50 μg/mL, Merck, Darmstadt, Germany) at 4 °C and the cellular DNA content was analyzed by conducting flow cytometry using a BD LSRFortessa cytometer (BD Bioscience, San Jose, CA, USA). Compounds at each concentration were tested at least three times independently. The obtained results were analyzed using Flowing software 2.5.1 (Cell Imaging Core, Turku Centre for Biotechnology, University of Turku and Åbo Akademi University, Finland).

MV4-11 cells [11] = assay: Apoptosis determination via Annexin V and PI staining; format: cell-based, human; conditions: MV4-11, 72 h; for induction of apoptosis: higher concentrations
Protocol: Camptothecin at a concentration of 0.05 uM was used as a positive control. After incubation, the cells were collected and counted with a hemocytometer, and 1×10^5 cells were washed twice with PBS. APC-Annexin V (Becton Dickinson, Pharmingen, Franklin Lakes, NJ, USA) was dissolved to the concentration of […] in a binding buffer (10 mM HEPES/NaOH, pH 7.4; 150 mM NaCl; 5 mM KCl; 1 mM MgCl2; and 1.8 mM CaCl2) (HIIET, Wrocław, Poland), and the cells were suspended in 200 µL of this solution. After 15 min of the incubation in the dark at room temperature, 20 µL of propidium iodide (PI) solution (0.02 mg/mL) was added. Data acquisition was performed by conducting flow cytometry using a BD LSRFortessa cytometer (BD Bioscience, San Jose, CA, USA). The compounds were tested at least three times independently. Results were analyzed using Flowing software 2.5.1 (Turku, Finland). […] Double-negative cells were live cells, PI+/Annexin V+ were late apoptotic cells, PI-/Annexin V+ were early apoptotic cells, and PI+/Annexin V- were necrotic cells.

SMILES	IC50 [1]	SI [1]	IC50 [2]	IC50 [3]	SI [3]	IC50 [4]	SI [4]	IC50 [5]	IC50 [6]	IC50 [7]	IC50 [8]	IC50 [9]	number of cells in the G2/M phase (MV4-11 cells [10]; MV4-11, 24 h)	SI [2]	SI [5]	SI [6]	induction of apoptosis (MV4-11 cells [11])	SI [8]	number of death cells (MV4-11 cells [10]; about 1.5 × IC50)	number of cells in the G2/M and S phases (MV4-11 cells [10])	also measured
C=C(C)[C@@H]1CC[C@]2(CO)CC[C@]3(C)[C@H](CC[C@@H]4[C@@]5(C)CC[C@H](O)C(C)(C)[C@@H]5CC[C@]43C)[C@@H]12 [B, betulin, reference compound]	14 ± 1.13 µM	7.03	37.7 ± 7.45 µM	144 ± 22.1 µM	0.68	58.5 ± 15.6 µM	1.68	43.6 ± 15.8 µM	51.5 ± 9.94 µM	14 to 144 µM	32.8 ± 12.9 µM	98.48 ± 0.9 µM	lowered								number of cells in the S and G0/G1 phases (MV4-11 cells [10]; MV4-11, 24 h, about 1.5 × IC50): lowered
C#CCCC(=O)OC[C@]12CC[C@@H](C(=C)C)C1C1CCC3[C@@]4(C)CC[C@H](OC(=O)CC(C)(C)C(=O)O)C(C)(C)C4CC[C@@]3(C)[C@]1(C)CC2 (some centres unmarked) [Compound 5b]	4.15 ± 0.92 µM	8.15	9.06 ± 2.92 µM	28.4 ± 3.23 µM	1.19	16.1 ± 4.76 µM	2.10	12.3 ± 2.92 µM	21.1 ± 1.54 µM		4.76 ± 0.92 µM	33.8 ± 3.38 µM	lowered	3.73	2.75	1.61	induction of apoptosis was observed	7.10	increased	decreased	number of necrotic cells (MV4-11 cells [11]): increased the number of necrotic cells
C=C(C)[C@@H]1CC[C@]2(CO)CC[C@]3(C)C(CCC4[C@@]5(C)CC[C@H](OC(=O)CC(C)(C)CC(=O)O)C(C)(C)C5CC[C@]43C)C12 (some centres unmarked) [Compound 4]	3.76 ± 2.05 µM	8.36	11.1 ± 2.56 µM	22.6 ± 6.5 µM	1.39	24.4 ± 8.89 µM	1.29	12.1 ± 3.08 µM	19.2 ± 3.76 µM	3.76 to 24.4 µM	4.77 ± 0.44 µM	31.5 ± 1.71 µM		2.83	2.60	1.64	induction of apoptosis was observed	6.60			
C#CCCC(=O)OC[C@]12CC[C@@H](C(=C)C)C1C1CCC3[C@@]4(C)CC[C@H](OC(=O)CC(C)(C)CC(=O)O)C(C)(C)C4CC[C@@]3(C)[C@]1(C)CC2 (some centres unmarked) [Compound 4b]	4.06 ± 1.05 µM	8.04	7.82 ± 2.86 µM	24.5 ± 2.56 µM	1.33	10.7 ± 1.5 µM	3.06	11.7 ± 2.41 µM	11.6 ± 4.51 µM		3.19 ± 1.29 µM	32.6 ± 2.41 µM		4.17	2.78	2.82	induction of apoptosis was observed	10.20	increased	decreased	
C#CC(=O)OC[C@]12CC[C@@H](C(=C)C)C1C1CCC3[C@@]4(C)CC[C@H](OC(=O)CCC(=O)O)C(C)(C)C4CC[C@@]3(C)[C@]1(C)CC2 (some centres unmarked) [Compound 6a]	12.9 ± 0.67 µM	3.82	20.7 ± 9.08 µM	18.5 ± 9.75 µM	2.67	3.53 ± 0.67 µM	14	16 ± 1.01 µM	0.41 ± 0.08 µM		2.57 ± 1.01 µM	49.4 ± 17.8 µM		2.39	3.09	121	induction of apoptosis was observed		increased	decreased	

From publication PMC11821258 (Molecules, 2025)
